Source: paper PMC12598616, “Design and optimization of caspase-1-responsive fluorescent probes for pyroptosis imaging and anti-pyroptosis drug screening” (Chemical Science, 2025)

What was measured:
[1] = test system: activated Cas-1 in primary peritoneal macrophages; test: High-content screening / fluorescence imaging for caspase-1 modulators in primary peritoneal macrophages; assay type: cell-based, mouse; conditions: MCC950 1 μM with Nig 10 μM simultaneously, after LPS; FPy1 5 μM
Description: The efficient and rapid discovery of Cas-1 modulators is of significant importance considering the therapeutic potential of Cas-1 in various diseases.[39,40] Therefore, we employed FPy1 to construct a high-content screening system aimed at identifying Cas-1 modulators. The level of activated Cas-1 in cells is influenced by multiple factors. To reduce the impact of factors that affect Cas-1 activation in cells, we utilized the NLRP3 inflammasome-mediated Cas-1 activation model, administering the drug during the second stage where the zymogen was converted into activated Cas-1. MCC950, a selective NLRP3 inflammasome inhibitor that could suppress Cas-1 activation, was selected as the positive drug.[41] […] To validate the efficacy of the Cas-1 modulator screening system (Fig. 6a), we first observed the fluorescence images of PMs stained with FPy1 (5 μM) in the control group, model group, and positive drug group. […] Subsequently, the impact of 25 natural products (10 μM) on activated Cas-1 were studied using high-content analysis (Fig. S20). […] To determine whether deoxyshikonin directly binds to Cas-1 and inhibits its activity, we conducted fluorescence detection following co-incubation of deoxyshikonin, FPy1 and Cas-1. […]
Harvested rat discs were fixed in 4 % buffered paraformaldehyde for 24 hours, decalcified in 10 % ethylenediaminetetraacetic acid (EDTA, Solarbio, E8030) solution for 1 month, embedded in paraffin, and sectioned at a thickness of 5 μm. […] Stained sections were evaluated by three independent raters, blinded to the research protocol, and measurements were averaged for statistical analysis. […]
In vivo fluorescence imaging of intervertebral disc degeneration
Twelve rats were modeled with needle puncture-induced intervertebral disc degeneration at the Co5/6, Co6/7 and Co 7/8 levels. […] In vivo fluorescence images were acquired using an in vivo Imaging System (PerkinElmer). […]
In vivo fluorescence imaging of osteoarthritis […]

caspase-1 [2] = target: T1, caspase-1 (Homo sapiens, UniProt P29466); test: Sensitivity of probes for caspase-1 (fluorescence at 585 nm); assay type: biochemical; conditions: probe 5 μM
T1 sequence (P29466 120-297 limits assumed): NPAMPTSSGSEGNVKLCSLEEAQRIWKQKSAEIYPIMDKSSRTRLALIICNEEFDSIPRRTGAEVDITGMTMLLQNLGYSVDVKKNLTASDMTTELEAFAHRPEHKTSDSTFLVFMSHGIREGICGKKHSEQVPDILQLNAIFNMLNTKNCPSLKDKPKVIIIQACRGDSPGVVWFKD
T1 sequence (P29466 317-404 limits assumed): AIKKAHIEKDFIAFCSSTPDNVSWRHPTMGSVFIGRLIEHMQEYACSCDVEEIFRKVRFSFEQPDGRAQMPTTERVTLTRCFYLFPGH
Description: The spectral and chemical properties of all probes were then evaluated. Upon interaction with Cas-1, the specific peptide of the probes is cleaved, leading to the disruption of the FRET process in the system and the recovery of donor fluorescence (Fig. 2a). Prior to fluorescence detection, the UV-vis absorption spectra of the probes were acquired. […] Subsequently, the sensitivity of the probes towards Cas-1 was measured in HEPES buffer (50 mM HEPES, 50 mM NaCl, 0.1% chaps, 5% glycerol, 10 mM DTT, 10 mM EDTA). […] The response differences among the probes were more intuitively observed by analyzing the standard curves of fluorescence intensity at 585 nm against the concentration of Cas-1 (Fig. 2b). […] The reaction kinetics of the probes were also measured by monitoring the fluorescence intensity of FPy1, YPy1 and WPy1 (0.5–4 μM) following incubation with Cas-1 (2 U mL^−1) (Fig. S3a–f). […] The reaction time of the probes was also investigated by monitoring the fluorescence spectra of the probes (5 μM) incubated with Cas-1 (2 U mL^−1) at various time intervals (Fig. S4a–c). […] Finally, the selectivity of the probes was evaluated. A series of potential biologically relevant interferents were selected, and the results illustrated that these interferents had no effect on the probes (Fig. S5a–c). Further selectivity validation was performed through incubating with caspase-3 (1 μg mL^−1), caspase-4 (2 U mL^−1), caspase-8 (1 μg mL^−1) from the caspase protease family. […] Therefore, FPy1 appeared to be the prime candidate for Cas-1 imaging applications. […]
Cell culture plates were sourced from Wuxi NEST Biotechnology. Recombinant human caspase-1, caspase-3, caspase-4, and caspase-8 were obtained from Abcam and MCE (Shanghai, China). Anti-cleaved caspase-1 antibody, anti-GAPDH antibody, and goat anti-Rabbit/anti-mouse lgG/HRP were purchased from CST (USA) and Beyotime […]
(§1) (Shanghai, China). […]
(§2) Medical College (ethical approval number ZJCLA-IACUC-20011003).
(§3) (also on this page, place not known: Wang,*f, Wang*abg Supplementary Information (SI) for Chemical Science. This journal is © The Royal Society of Chemistry 2025)
(§4) (1 picture or pasted object on this page, not shown here) […]
mixture was stirred for 3 h. DCM was removed under vacuum, and the residue was purified by silica gel column chromatography (DCM/MeOH, 180/1) to afford WPy1 as a dark purple solid (21 mg, 6 % yield). HRMS (ESI+): calcd […]
Analysis of probe purity by LC-MSD
Prepare dilute solutions of FPy1, YPy1 and WPy1 using chromatographic-grade acetonitrile and transfer them to sample vials. Begin with an initial mobile phase consisting of 20% acetonitrile (0.05 % formic acid) and 80% H2O (0.05 % formic acid). Over the course of 30 minutes, implement a gradient change to a mobile phase of 90% acetonitrile (0.05 % formic acid) and 10% H2O (0.05 % FA). Under the elution conditions, LC-MSD was performed on the above probe solutions and blank solvent acetonitrile.
Sensitivity of probes for caspase-1
(§5) To investigate the sensitivity of the probes for caspase-1, varying concentration of caspase-1 (0, 0.2, 0.4, 0.6, 0.8, 1.0, 1.25, 1.5, 1.75, 2, 2.5, 3 U/mL) were incubated with FPy1 (5 μM), YPy1 (5 μM) and WPy1 (5 μM) respectively in caspase-1 assay buffer (50 mM HEPES, 50 mM NaCl, 0.1 % chaps, 5 % glycerol, 10 mM DTT, 10 mM EDTA) at 37 °C for 2 hours. Fluorescence spectra were recorded using Hitachi F-2700 spectrophotometer with an excitation at 510 nm (Photomultiplier voltage 700 V; Slit widths ex: 10 nm and em =5.0 nm). The fluorescence intensity of FPy1, YPy1 and WPy1 at 585 nm were plotted against the concentration of caspase-1, and a linear regression fitted from the corresponding concentration of caspase-1, and linear regression was applied to determine the slope k. The limit of detection (LoD) was calculated from 3σ/k, in which σ represents the standard deviation of 15 blank measurements.
Various concentrations of FPy1, YPy1 and WPy1 (0.5, 1, 2, 4 μM) in 100 μL enzyme assay buffer (50 mM HEPES, 50 […]

caspase-1 [3] = target: T1, caspase-1; test: Reaction time of probes for caspase-1; assay type: biochemical; conditions: probe 5 μM, Cas-1 2 U/mL, assay buffer, 37 °C
Description: The spectral and chemical properties of all probes were then evaluated. Upon interaction with Cas-1, the specific peptide of the probes is cleaved, leading to the disruption of the FRET process in the system and the recovery of donor fluorescence (Fig. 2a). Prior to fluorescence detection, the UV-vis absorption spectra of the probes were acquired. […] Subsequently, the sensitivity of the probes towards Cas-1 was measured in HEPES buffer (50 mM HEPES, 50 mM NaCl, 0.1% chaps, 5% glycerol, 10 mM DTT, 10 mM EDTA). […] The response differences among the probes were more intuitively observed by analyzing the standard curves of fluorescence intensity at 585 nm against the concentration of Cas-1 (Fig. 2b). […] The reaction kinetics of the probes were also measured by monitoring the fluorescence intensity of FPy1, YPy1 and WPy1 (0.5–4 μM) following incubation with Cas-1 (2 U mL^−1) (Fig. S3a–f). […] The reaction time of the probes was also investigated by monitoring the fluorescence spectra of the probes (5 μM) incubated with Cas-1 (2 U mL^−1) at various time intervals (Fig. S4a–c). […] Finally, the selectivity of the probes was evaluated. […]
as §5, with “measurements. […]” for “measurements.”

caspase-8 = test: Selectivity of probes: caspase-8; assay type: biochemical, human; conditions: caspase-8 1 μg/mL, 37 °C, 2 h, λex 510 nm, λem 585 nm
Description: The resin used for SPPS was purchased from GL Biochem (Shanghai, China). Lipopolysaccharide (LPS, L2630), Nigericin and ATP (11140965001) were purchased from Merck (Shanghai, China) and Invitrogen (Shanghai, China), respectively. Cell culture plates were sourced from Wuxi NEST Biotechnology. Recombinant human caspase-1, caspase-3, caspase-4, and caspase-8 were obtained from Abcam and MCE (Shanghai, China). Anti-cleaved caspase-1 antibody, anti-GAPDH antibody, and goat anti-Rabbit/anti-mouse lgG/HRP were purchased from CST (USA) and Beyotime […]
as §1, §2, §3, §4
mixture was stirred for 3 h. […]
as §5, with “measurements. […]” for “measurements.”
The fluorescence intensity at 585 nm was measured on a Tecan Infinite M1000 Multi-function microplate reader (λex = 510 nm) at 37 °C every 2 minutes. The K M value of probes was determined from the Lineweaver-Burk plot. […]

Compound | fluorescence intensity of FPy1, positive drug group vs model group [1] | maximum fluorescence intensity at 585 nm (caspase-1 [2]; compared with FPy1 and YPy1) | baseline fluorescence intensity at 585 nm (caspase-1 [2]; compared with other probes) | linear fitting range of Cas-1 concentration (caspase-1 [2]; fluorescence intensity at 585 nm vs Cas-1 concentration, 37 °C, 2 h) | enhancement of fluorescence intensity at 585 nm (caspase-1 [2]; Cas-1 0–3 U/mL, assay buffer 50 mM HEPES, 50 mM NaCl, 0.1% chaps, 5% glycerol, 10 mM DTT, 10 mM EDTA, 37 °C, 2 h, λex 510 nm) | time to maximum fluorescence intensity at 585 nm (reaction time) (caspase-1 [3]) | fluorescence response to caspase-8 (caspase-8)
CC(C)(O)c1coc(S(=O)(=O)NC(=O)Nc2c3c(cc4c2CCC4)CCC3)c1 [MCC950, reference compound] | significantly lower than in the model group |  |  |  |  |  | 
–WEHDG– [WPy1, caspase-1-responsive FRET probe with recognition peptide –WEHDG–; RhoB donor, hNR quencher] |  | significantly lower than that of FPy1 and YPy1 | lower baseline fluorescence intensity | 0–1.25 U mL^−1 | about 11.5 fold | 60 min | a certain level of response to caspase-8
